Measured values from PubChem BioAssay AID2060626 (Molecular Pharmacology Branch, DTP, NCI, 2025).
Values joined by “and” are separate entries in the source; they are usually repeats but may differ in a detail not shown here. Equal entries are not always repeated.

Tested on: 168753-222-R-J1-PDC complex spheroid viability
Assay: Anticancer human tumor 168753-222-R-J1-PDC patient-derived bladder carcinoma cell line growth inhibition [CLK]
Settings: for viability, T/C: stronger effect = lower value
Method in brief: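 Patient-derived tumor cells grown as complex spheroids with HUVEC endothelial cells and mesenchymal stem cells, treated with drug combinations. Concentrations descend in half-log steps from near clinical Cmax, or from 10 microM if Cmax unknown.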

[1] = curve of first compound, second compound 0.0316 µM
[2] = curve of first compound, second compound 0.1 µM
[3] = curve of first compound, second compound 0.316 µM
[4] = curve of first compound, second compound 1 µM
[5] = curve of first compound, second compound 3.16 µM
[6] = curve of first compound, second compound 10 µM
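Also: viability measured after seven days of drug exposure.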
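For viability, T/C in this document: luminescence signal used as surrogate for viable cell amount; 100% = DMSO vehicle control wells.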

C=CC(=O)Nc1cc(Nc2nccc(-c3cn(C)c4ccccc34)n2)c(OC)cc1N(C)CCN(C)C + CNC(=O)c1ccc(Nc2nc(OC3CCCC3)c3c(-c4ccc5nc(C)oc5c4)c[nH]c3n2)c(OC)c1
IC50 [1]: > 300 nM | IC50 [2]: > 300 nM | IC50 [3]: > 300 nM | IC50 [4]: < 0.949 nM | IC50 [5]: < 0.949 nM | IC50 [6]: < 0.949 nM | viability, T/C (second compound 0.0316 µM, first compound 0.000949 µM): 122% | viability, T/C (second compound 0.0316 µM, first compound 0.003 µM): 96.3% | viability, T/C (second compound 0.0316 µM, first compound 0.00949 µM): 102% | viability, T/C (second compound 0.0316 µM, first compound 0.03 µM): 102% | viability, T/C (second compound 0.0316 µM, first compound 0.0949 µM): 107% | viability, T/C (second compound 0.0316 µM, first compound 0.3 µM): 103% | viability, T/C (second compound 0.1 µM, first compound 0.000949 µM): 91.1% | viability, T/C (second compound 0.1 µM, first compound 0.003 µM): 87% | viability, T/C (second compound 0.1 µM, first compound 0.00949 µM): 86.7% | viability, T/C (second compound 0.1 µM, first compound 0.03 µM): 76.8% | viability, T/C (second compound 0.1 µM, first compound 0.0949 µM): 91.7% | viability, T/C (second compound 0.1 µM, first compound 0.3 µM): 90.2% | viability, T/C (second compound 0.316 µM, first compound 0.000949 µM): 73.5% | viability, T/C (second compound 0.316 µM, first compound 0.003 µM): 69.6% | viability, T/C (second compound 0.316 µM, first compound 0.00949 µM): 69.3% | viability, T/C (second compound 0.316 µM, first compound 0.03 µM): 63.8% | viability, T/C (second compound 0.316 µM, first compound 0.0949 µM): 71.8% | viability, T/C (second compound 0.316 µM, first compound 0.3 µM): 62.5% | viability, T/C (second compound 1 µM, first compound 0.000949 µM): 37.1% | viability, T/C (second compound 1 µM, first compound 0.003 µM): 39.1% | viability, T/C (second compound 1 µM, first compound 0.00949 µM): 38.5% | viability, T/C (second compound 1 µM, first compound 0.03 µM): 40.8% | viability, T/C (second compound 1 µM, first compound 0.0949 µM): 30.8% | viability, T/C (second compound 1 µM, first compound 0.3 µM): 29% | viability, T/C (second compound 3.16 µM, first compound 0.000949 µM): 18.2% | viability, T/C (second compound 3.16 µM, first compound 0.003 µM): 19.3% | viability, T/C (second compound 3.16 µM, first compound 0.00949 µM): 19.5% | viability, T/C (second compound 3.16 µM, first compound 0.03 µM): 22.8% | viability, T/C (second compound 3.16 µM, first compound 0.0949 µM): 19.6% | viability, T/C (second compound 3.16 µM, first compound 0.3 µM): 16.9% | viability, T/C (second compound 10 µM, first compound 0.000949 µM): 16.3% | viability, T/C (second compound 10 µM, first compound 0.003 µM): 19.8% | viability, T/C (second compound 10 µM, first compound 0.00949 µM): 18.5% | viability, T/C (second compound 10 µM, first compound 0.03 µM): 15.6% | viability, T/C (second compound 10 µM, first compound 0.0949 µM): 19.1% | viability, T/C (second compound 10 µM, first compound 0.3 µM): 15.6%

CC(C)CC(NC(=O)C(Cc1ccccc1)NC(=O)c1cnccn1)B(O)O (stereo unspecified)
viability, T/C (compound 0.000949 µM): 84.2% and 86.5% | viability, T/C (compound 0.003 µM): 34.9% and 45.1% | viability, T/C (compound 0.00949 µM): 0.64% and 3.31% | viability, T/C (compound 0.03 µM): 1.34% and 1.82% | viability, T/C (compound 0.0949 µM): 0.77% and 0.3% | viability, T/C (compound 0.3 µM): 0.23% and 0.22% | IC50 (curve of compound): 2.11 nM and 2.62 nM

COc1c(OCCCN2CCOCC2)ccc2c3n(c(=NC(=O)c4cnc(N)nc4)nc12)CCN3 + CNC(=O)c1ccc(Nc2nc(OC3CCCC3)c3c(-c4ccc5nc(C)oc5c4)c[nH]c3n2)c(OC)c1
IC50 [1]: 12 nM | IC50 [2]: 13.1 nM | IC50 [3]: 5.16 nM | IC50 [4]: < 3.16 nM | IC50 [5]: < 3.16 nM | IC50 [6]: < 3.16 nM | viability, T/C (second compound 0.0316 µM, first compound 0.00316 µM): 96.5% | viability, T/C (second compound 0.0316 µM, first compound 0.01 µM): 56.4% | viability, T/C (second compound 0.0316 µM, first compound 0.0316 µM): 17.8% | viability, T/C (second compound 0.0316 µM, first compound 0.1 µM): 13.7% | viability, T/C (second compound 0.0316 µM, first compound 0.316 µM): 8.52% | viability, T/C (second compound 0.0316 µM, first compound 1 µM): 1.96% | viability, T/C (second compound 0.1 µM, first compound 0.00316 µM): 87.3% | viability, T/C (second compound 0.1 µM, first compound 0.01 µM): 60.8% | viability, T/C (second compound 0.1 µM, first compound 0.0316 µM): 14.7% | viability, T/C (second compound 0.1 µM, first compound 0.1 µM): 11.1% | viability, T/C (second compound 0.1 µM, first compound 0.316 µM): 7.84% | viability, T/C (second compound 0.1 µM, first compound 1 µM): 1.03% | viability, T/C (second compound 0.316 µM, first compound 0.00316 µM): 67.3% | viability, T/C (second compound 0.316 µM, first compound 0.01 µM): 25.6% | viability, T/C (second compound 0.316 µM, first compound 0.0316 µM): 12.7% | viability, T/C (second compound 0.316 µM, first compound 0.1 µM): 7.32% | viability, T/C (second compound 0.316 µM, first compound 0.316 µM): 4.55% | viability, T/C (second compound 0.316 µM, first compound 1 µM): 0.36% | viability, T/C (second compound 1 µM, first compound 0.00316 µM): 25% | viability, T/C (second compound 1 µM, first compound 0.01 µM): 16.4% | viability, T/C (second compound 1 µM, first compound 0.0316 µM): 3.59% | viability, T/C (second compound 1 µM, first compound 0.1 µM): 0.43% | viability, T/C (second compound 1 µM, first compound 0.316 µM): 0.26% | viability, T/C (second compound 1 µM, first compound 1 µM): 1.09% | viability, T/C (second compound 3.16 µM, first compound 0.00316 µM): 14.6% | viability, T/C (second compound 3.16 µM, first compound 0.01 µM): 12.3% | viability, T/C (second compound 3.16 µM, first compound 0.0316 µM): 2.46% | viability, T/C (second compound 3.16 µM, first compound 0.1 µM): 0.34% | viability, T/C (second compound 3.16 µM, first compound 0.316 µM): 2.13% | viability, T/C (second compound 3.16 µM, first compound 1 µM): 1.79% | viability, T/C (second compound 10 µM, first compound 0.00316 µM): 12.6% | viability, T/C (second compound 10 µM, first compound 0.01 µM): 10.4% | viability, T/C (second compound 10 µM, first compound 0.0316 µM): 3.75% | viability, T/C (second compound 10 µM, first compound 0.1 µM): 2.46% | viability, T/C (second compound 10 µM, first compound 0.316 µM): 0.34% | viability, T/C (second compound 10 µM, first compound 1 µM): 3.45%
